Source: patent publication US10538555B2, “Macrocyclic inhibitors of the PD-1/PD-L1 and CD80(B7-1)/PD-L1 protein/protein interactions” (BRISTOL-MYERS SQUIBB COMPANY, priority 2014, dated 2020)
Where a SMILES comes first, the peptide text is derived from it. Bridges are numbered along the chain shown (N, C = ends). [ ]: non-standard residue; d: D form. ξ: configuration not given here. Phe(3,4,5-F3) = N[C@@H](Cc1cc(F)c(F)c(F)c1)C(=O)O; d(cisHyp) = O=C(O)[C@H]1C[C@@H](O)CN1; Bta = N[C@@H](Cc1csc2ccccc12)C(=O)O; Hyp = O=C(O)[C@@H]1C[C@@H](O)CN1; NMeF = CN[C@@H](Cc1ccccc1)C(=O)O; dHyp = O=C(O)[C@H]1C[C@H](O)CN1; NMeNle = CCCC[C@H](NC)C(=O)O; NMeA = CN[C@@H](C)C(=O)O; Orn = NCCC[C@H](N)C(=O)O; Dab = NCC[C@H](N)C(=O)O; Dap = NC[C@H](N)C(=O)O; ξC = NC(CS)C(=O)O

Biological target: T1, Human PD-L1/PD-1 (Homo sapiens, UniProt Q9NZQ7)
T1 construct: TVMV protease cleavage site (C); made in house; host or cells: HEK293T cells
T1 sequence (Q9NZQ7 with tags, fused parts or gaps): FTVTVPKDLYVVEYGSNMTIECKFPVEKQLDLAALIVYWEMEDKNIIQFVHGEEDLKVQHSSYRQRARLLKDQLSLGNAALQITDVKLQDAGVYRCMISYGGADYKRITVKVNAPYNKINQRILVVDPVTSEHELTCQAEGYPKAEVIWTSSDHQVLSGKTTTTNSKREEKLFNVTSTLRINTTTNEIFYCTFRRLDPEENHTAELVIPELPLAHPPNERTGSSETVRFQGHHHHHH
Assay: HTRF Human PD-L1/PD-1 binding assay (PD-1-Ig/PD-L1-His)
Conditions: PD-L1-His 10 nM, PD-1-Ig 20 nM; class symbol; read-out: HTRF Human PD-L1/PD-1 Binding Assay IC50 Range
Summary of the method: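 Competition of macrocyclic peptides for PD-1/PD-L1 binding measured by HTRF in dPBS containing 0.1% BSA and 0.05% Tween-20. Compound and PD-L1-His (10 nM final) incubated 15 min before PD-1-Ig (20 nM final) and a further 15 min.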

Row | Compound | IC50
1 | CCCC[C@H]1C(=O)N2C[C@H](O)C[C@@H]2C(=O)N[C@@H](CC(=O)O)C(=O)N[C@@H](C(C)C)C(=O)N(C)[C@@H](Cc2ccccc2)C(=O)N[C@@H](CC(N)=O)C(=O)N2C[C@H](O)C[C@@H]2C(=O)N[C@@H](Cc2c[nH]c3ccccc23)C(=O)N[C@@H](Cc2ccc(O)cc2)C(=O)N[C@@H](CCCCN)C(=O)N[C@H](C(=O)NCC(N)=O)CSCC(=O)N[C@@H](Cc2cc(F)c(F)c(F)c2)C(=O)N(C)[C@@H](Cc2ccccc2)C(=O)N1C [Example 9362] ({CH2CO}-[Phe(3,4,5-F3)][NMeF][NMeNle][d(cisHyp)]DV[NMeF]N[d(cisHyp)]WYKCG-NH2; thioether N-13) | 1 to 9.9 nM
2 | CCCC[C@H]1C(=O)N2C[C@H](O)C[C@@H]2C(=O)N[C@@H](CC(=O)O)C(=O)N[C@@H](C(C)C)C(=O)N(C)[C@@H](Cc2ccccc2)C(=O)N[C@@H](CC(N)=O)C(=O)N2C[C@H](O)C[C@@H]2C(=O)N[C@@H](Cc2c[nH]c3ccccc23)C(=O)N[C@@H](Cc2ccc(O)cc2)C(=O)N[C@@H](CCCN)C(=O)N[C@H](C(=O)NCC(N)=O)CSCC(=O)N[C@@H](Cc2cc(F)c(F)c(F)c2)C(=O)N(C)[C@@H](Cc2ccccc2)C(=O)N1C [Example 9363] ({CH2CO}-[Phe(3,4,5-F3)][NMeF][NMeNle][d(cisHyp)]DV[NMeF]N[d(cisHyp)]WY[Orn]CG-NH2; thioether N-13) | 1 to 9.9 nM
3 | CCCC[C@H]1C(=O)N2C[C@H](O)C[C@@H]2C(=O)N[C@@H](CC(=O)O)C(=O)N[C@@H](C(C)C)C(=O)N(C)[C@@H](Cc2ccccc2)C(=O)N[C@@H](CC(N)=O)C(=O)N2C[C@H](O)C[C@@H]2C(=O)N[C@@H](Cc2c[nH]c3ccccc23)C(=O)N[C@@H](Cc2ccc(O)cc2)C(=O)N[C@@H](CCN)C(=O)N[C@H](C(=O)NCC(N)=O)CSCC(=O)N[C@@H](Cc2cc(F)c(F)c(F)c2)C(=O)N(C)[C@@H](Cc2ccccc2)C(=O)N1C [Example 9364] ({CH2CO}-[Phe(3,4,5-F3)][NMeF][NMeNle][d(cisHyp)]DV[NMeF]N[d(cisHyp)]WY[Dab]CG-NH2; thioether N-13) | 10 to 99.9 nM
4 | CCCC[C@H]1C(=O)N2C[C@H](O)C[C@@H]2C(=O)N[C@@H](CC(=O)O)C(=O)N[C@@H](C(C)C)C(=O)N(C)[C@@H](Cc2ccccc2)C(=O)N[C@@H](CC(N)=O)C(=O)N2C[C@H](O)C[C@@H]2C(=O)N[C@@H](Cc2c[nH]c3ccccc23)C(=O)N[C@@H](Cc2ccc(O)cc2)C(=O)N[C@@H](CN)C(=O)N[C@H](C(=O)NCC(N)=O)CSCC(=O)N[C@@H](Cc2cc(F)c(F)c(F)c2)C(=O)N(C)[C@@H](Cc2ccccc2)C(=O)N1C [Example 9365] ({CH2CO}-[Phe(3,4,5-F3)][NMeF][NMeNle][d(cisHyp)]DV[NMeF]N[d(cisHyp)]WY[Dap]CG-NH2; thioether N-13) | 10 to 99.9 nM
5 | CCCC[C@H]1C(=O)N2C[C@H](O)C[C@@H]2C(=O)N[C@@H](CC(=O)O)C(=O)N[C@@H](C(C)C)C(=O)N(C)[C@@H](Cc2ccccc2)C(=O)N[C@@H](CC(N)=O)C(=O)N2C[C@H](O)C[C@@H]2C(=O)N[C@@H](Cc2c[nH]c3ccccc23)C(=O)N[C@@H](Cc2ccc(O)cc2)C(=O)N[C@@H](CCC(=O)O)C(=O)N[C@H](C(=O)NCC(N)=O)CSCC(=O)N[C@@H](Cc2cc(F)c(F)c(F)c2)C(=O)N(C)[C@@H](Cc2ccccc2)C(=O)N1C [Example 9366] ({CH2CO}-[Phe(3,4,5-F3)][NMeF][NMeNle][d(cisHyp)]DV[NMeF]N[d(cisHyp)]WYECG-NH2; thioether N-13) | 10 to 99.9 nM
6 | CCCC[C@H]1C(=O)N2C[C@H](O)C[C@@H]2C(=O)N[C@@H](CC(=O)O)C(=O)N[C@@H](C(C)C)C(=O)N(C)[C@@H](Cc2ccccc2)C(=O)N[C@@H](Cc2ccc(O)cc2)C(=O)N2C[C@H](O)C[C@@H]2C(=O)N[C@@H](Cc2c[nH]c3ccccc23)C(=O)N[C@@H](Cc2ccc(O)cc2)C(=O)N[C@@H](CC(C)C)C(=O)N[C@H](C(=O)NCC(N)=O)CSCC(=O)N[C@@H](Cc2cc(F)c(F)c(F)c2)C(=O)N(C)[C@@H](Cc2ccccc2)C(=O)N1C [Example 9367] ({CH2CO}-[Phe(3,4,5-F3)][NMeF][NMeNle][d(cisHyp)]DV[NMeF]Y[d(cisHyp)]WYLCG-NH2; thioether N-13) | 10 to 99.9 nM
7 | CCCC[C@H]1C(=O)N2C[C@@H](O)C[C@@H]2C(=O)N[C@@H](CC(=O)O)C(=O)N[C@@H](C(C)C)C(=O)N(C)[C@@H](Cc2ccccc2)C(=O)N[C@@H](Cc2ccc(O)cc2)C(=O)N2C[C@H](O)C[C@@H]2C(=O)N[C@@H](Cc2c[nH]c3ccccc23)C(=O)N[C@@H](Cc2ccc(O)cc2)C(=O)N[C@@H](CCCN)C(=O)N[C@H](C(=O)NCC(N)=O)CSCC(=O)N[C@@H](Cc2cc(F)c(F)c(F)c2)C(=O)N(C)[C@@H](Cc2ccccc2)C(=O)N1C [Example 9368] ({CH2CO}-[Phe(3,4,5-F3)][NMeF][NMeNle][dHyp]DV[NMeF]Y[d(cisHyp)]WY[Orn]CG-NH2; thioether N-13) | 1 to 9.9 nM
8 | CCCC[C@H]1C(=O)N2C[C@@H](O)C[C@@H]2C(=O)N[C@@H](CC(=O)O)C(=O)N[C@@H](C(C)C)C(=O)N(C)[C@@H](Cc2ccccc2)C(=O)N[C@@H](CCC(=O)O)C(=O)N2C[C@H](O)C[C@@H]2C(=O)N[C@@H](Cc2c[nH]c3ccccc23)C(=O)N[C@@H](Cc2ccc(O)cc2)C(=O)N[C@@H](CC(C)C)C(=O)N[C@H](C(=O)NCC(N)=O)CSCC(=O)N[C@@H](Cc2cc(F)c(F)c(F)c2)C(=O)N(C)[C@@H](Cc2ccccc2)C(=O)N1C [Example 9369] ({CH2CO}-[Phe(3,4,5-F3)][NMeF][NMeNle][dHyp]DV[NMeF]E[d(cisHyp)]WYLCG-NH2; thioether N-13) | 1 to 9.9 nM
9 | CCCC[C@H]1C(=O)N2C[C@H](O)C[C@@H]2C(=O)N[C@@H](CC(=O)O)C(=O)N[C@@H](C(C)C)C(=O)N(C)[C@@H](Cc2ccccc2)C(=O)N[C@@H](Cc2ccc(O)cc2)C(=O)N2C[C@@H](O)C[C@@H]2C(=O)N[C@@H](Cc2c[nH]c3ccccc23)C(=O)N[C@@H](Cc2ccc(O)cc2)C(=O)N[C@@H](CC(C)C)C(=O)N[C@H](C(=O)NCC(N)=O)CSCC(=O)N[C@@H](Cc2cc(F)c(F)c(F)c2)C(=O)N(C)[C@@H](Cc2ccccc2)C(=O)N1C [Example 9371] ({CH2CO}-[Phe(3,4,5-F3)][NMeF][NMeNle][d(cisHyp)]DV[NMeF]Y[dHyp]WYLCG-NH2; thioether N-13) | 1 to 9.9 nM
10 | CCCC[C@H]1C(=O)N2C[C@H](O)C[C@@H]2C(=O)N[C@@H](CC(=O)O)C(=O)N[C@@H](C(C)C)C(=O)N(C)[C@@H](Cc2ccccc2)C(=O)N[C@@H](Cc2ccc(O)cc2)C(=O)N2C[C@@H](O)C[C@@H]2C(=O)N[C@@H](Cc2c[nH]c3ccccc23)C(=O)N[C@@H](Cc2ccc(O)cc2)C(=O)N[C@@H](CCCN)C(=O)N[C@H](C(=O)NCC(N)=O)CSCC(=O)N[C@@H](Cc2cc(F)c(F)c(F)c2)C(=O)N(C)[C@@H](Cc2ccccc2)C(=O)N1C [Example 9372] ({CH2CO}-[Phe(3,4,5-F3)][NMeF][NMeNle][d(cisHyp)]DV[NMeF]Y[dHyp]WY[Orn]CG-NH2; thioether N-13) | 1 to 9.9 nM
11 | CCCC[C@H]1C(=O)N2C[C@H](O)C[C@@H]2C(=O)N[C@@H](CC(=O)O)C(=O)N[C@@H](C(C)C)C(=O)N(C)[C@@H](Cc2ccccc2)C(=O)N[C@@H](CCC(=O)O)C(=O)N2C[C@@H](O)C[C@@H]2C(=O)N[C@@H](Cc2c[nH]c3ccccc23)C(=O)N[C@@H](Cc2ccc(O)cc2)C(=O)N[C@@H](CC(C)C)C(=O)N[C@H](C(=O)NCC(N)=O)CSCC(=O)N[C@@H](Cc2cc(F)c(F)c(F)c2)C(=O)N(C)[C@@H](Cc2ccccc2)C(=O)N1C [Example 9373] ({CH2CO}-[Phe(3,4,5-F3)][NMeF][NMeNle][d(cisHyp)]DV[NMeF]E[dHyp]WYLCG-NH2; thioether N-13) | 10 to 99.9 nM
12 | CCCC[C@H]1C(=O)N2C[C@H](O)C[C@@H]2C(=O)N[C@@H](CC(=O)O)C(=O)N[C@@H](C(C)C)C(=O)N(C)[C@@H](Cc2ccccc2)C(=O)N[C@@H](CCC(=O)O)C(=O)N2C[C@@H](O)C[C@@H]2C(=O)N[C@@H](Cc2c[nH]c3ccccc23)C(=O)N[C@@H](Cc2ccc(O)cc2)C(=O)N[C@@H](CCCN)C(=O)N[C@H](C(=O)NCC(N)=O)CSCC(=O)N[C@@H](Cc2cc(F)c(F)c(F)c2)C(=O)N(C)[C@@H](Cc2ccccc2)C(=O)N1C [Example 9374] ({CH2CO}-[Phe(3,4,5-F3)][NMeF][NMeNle][d(cisHyp)]DV[NMeF]E[dHyp]WY[Orn]CG-NH2; thioether N-13) | 10 to 99.9 nM
13 | CCCC[C@H]1C(=O)N(C)[C@@H](CCCC)C(=O)N[C@@H](CCCNC(=N)N)C(=O)NC(C(=O)NCC(N)=O)CSCC(=O)N[C@@H](Cc2ccc(O)cc2)C(=O)N(C)[C@@H](C)C(=O)N[C@@H](CC(N)=O)C(=O)N2CCC[C@H]2C(=O)N[C@@H](CC(N)=O)C(=O)N[C@@H](CC(N)=O)C(=O)N2C[C@H](O)C[C@H]2C(=O)N[C@@H](Cc2c[nH]c3ccccc23)C(=O)N[C@@H](CO)C(=O)N[C@@H](Cc2csc3ccccc23)C(=O)N1C (some centres unmarked) [Example 10012] ({CH2CO}-Y[NMeA]NPNN[Hyp]WS[Bta][NMeNle][NMeNle]R[ξC]G-NH2; thioether N-14) | 10 to 99.9 nM

Same assay, conditions: PD-L1-His 10 nM, PD-1-Ig 20 nM; read-out: HTRF Human PD-L1/PD-1 Binding Assay IC50

Row | Compound | IC50
14 | CCCC[C@H]1C(=O)N2C[C@@H](O)C[C@@H]2C(=O)N[C@@H](CC(=O)O)C(=O)N[C@@H](C(C)C)C(=O)N(C)[C@@H](Cc2ccccc2)C(=O)N[C@@H](CCC(=O)O)C(=O)N2C[C@H](O)C[C@@H]2C(=O)N[C@@H](Cc2c[nH]c3ccccc23)C(=O)N[C@@H](Cc2ccc(O)cc2)C(=O)N[C@@H](CCCN)C(=O)N[C@H](C(=O)NCC(N)=O)CSCC(=O)N[C@@H](Cc2cc(F)c(F)c(F)c2)C(=O)N(C)[C@@H](Cc2ccccc2)C(=O)N1C [Example 9370] ({CH2CO}-[Phe(3,4,5-F3)][NMeF][NMeNle][dHyp]DV[NMeF]E[d(cisHyp)]WY[Orn]CG-NH2; thioether N-13) | 5.7 nM
